By IC50 is commonly meant the concentration at which inhibition is half-maximal. The AUC(0-inf) is the area under the concentration-time curve extrapolated to infinity. Low values mean less exposure, high ones more exposure. Usually MRT inf stands for the average time that molecules of a dose stay in the body. The term MRT last denotes the average time that molecules of a dose stay in the body. Broadly, the Vd is a proportionality between amount in the body and measured concentration, not a real space. The clearance is the volume of plasma or blood freed of the substance per unit of time. As a reminder, the half-life is the time needed for the level to fall by half in the phase considered. A word on the logD: it is the decadic logarithm of the distribution of all forms, ionised or not, between an organic phase and buffer at a given pH. The low end stands for a more hydrophilic compound, the high end for a more lipophilic compound. Usually fraction unbound stands for the share of the substance not bound to proteins or other matrix. As usually defined, the AUC(0-t) is the area under the concentration-time curve up to a stated or last time point. Read a low AUC(0-t) as less exposure. What is called microsomal CLint is a measure of how fast metabolising enzymes remove a compound, apart from limits set by blood flow. A lower microsomal CLint goes with greater metabolic stability. Broadly, the CL/F is the apparent clearance, not corrected for the fraction that reaches the circulation. A word on the Tmax: it is the time from dosing to the highest level. Broadly, the Cmax is the maximum level reached in the sampled fluid or tissue. The bioavailability is the share of a dose that reaches the circulation, judged against a reference dose that is usually intravenous. A high value points to good availability. The Papp is a coefficient for how fast a substance crosses the barrier. Read a low Papp as poor permeation.

The structures appear in SMILES notation. Values joined by “and” are separate entries in the source; they are usually repeats but may differ in a detail not shown here. Equal values may be shown once.

Consider 19 compounds from the COVID Moonshot data (paper PMC7615835).

Series [1] deals with SARS-CoV-2 Main Protease (SARS-CoV-2) (UniProt P0DTD1).
For series [2] the following is noted: in vivo, iv.
Experiment in series [3]: not given
The source holds these as a separate data set.

For series [4] the following is noted: human; plasma.
The conditions of series [5]: rat; plasma.
For series [6] the following is noted: human; liver_microsomes.
For series [7] the following is noted: dog; liver_microsomes.
The conditions of series [8]: rat; in vivo; po; 10.0 mg/kg.
For series [9] the following is noted: cattle; serum.
For series [10] the following is noted: mouse; liver_microsomes.
Experiment in series [11]: not given
This is another data set of the same source.

The conditions of series [12]: mouse; plasma.
For series [13] the following is noted: mouse; hepatocytes.
For series [14] the following is noted: helaace2.
The conditions of series [15]: pampa.

On to `CN(C)C(=O)C[C@]1(C(=O)Nc2cncc3ccccc23)CCOc2ccc(Cl)cc21` (stereo in doubt), for which the CC50 (vero) is more than 9990 nM. In series [1], this compound showed an IC50 of 1300 nM.

For `COc1ccc2cncc(NC(=O)C3(OC)CCOc4ccc(Cl)cc43)c2c1` (stereo not given), in series [1], the IC50 is 116 nM and 120 nM. For the same compound, in series [2] (mouse, 0.5 mg/kg), the AUC(0-inf) was 98.2 ng·h/mL and 108 ng·h/mL; the C0 is 246 ng/mL and 252 ng/mL; the MRT inf is 41.5 min and 34.1 min; the MRT last was 30.8 min and 28.1 min. Also, in series [2] (mouse, 0.5 mg/kg), the Vd is 3.52 L/kg and 2.67 L/kg; the clearance is 84.9 mL/min/kg and 77.9 mL/min/kg; the half-life was 35.6 min and 29 min. The same compound displayed a logD in [3] of 3.4.

`CC1CN(S(C)(=O)=O)CCC1NC(=O)CC1(C(=O)Nc2cncc3ccccc23)CCOc2ccc(Cl)cc21` (stereo not given) yielded a CC50 (a549) of more than 9990 nM. In addition, the IC50 in series [1] was 2790 nM.

Compound `O=C(Nc1cncc2ccccc12)C1CCS(=O)(=O)c2ccc(Cl)cc21` (stereo not given) yielded an IC50 in series [1] of 288 nM. Further, in series [4], the fraction unbound was 0.106 and 0.125; the recovery worked out at 96.9%. For the same compound, in series [2] (mouse, 0.5 mg/kg), the AUC(0-inf) was 192 ng·h/mL and 207 ng·h/mL; the AUC(0-t) is 190 ng·h/mL and 204 ng·h/mL; the C0 was 460 ng/mL and 586 ng/mL; the MRT inf is 26.5 min and 25.2 min. Also, in [2] (mouse, 0.5 mg/kg), the MRT last is 25.1 min and 23.6 min; the Vd is 1.09 L/kg and 0.972 L/kg; the clearance was 41.3 mL/min/kg and 38.6 mL/min/kg; the half-life is 18.4 min and 19.9 min. Besides, in [2] (rat, 2.0 mg/kg), the AUC(0-inf) was found to be 2890 ng·h/mL; the AUC(0-t) is 2850 ng·h/mL and 2840 ng·h/mL; the C0 was 1400 ng/mL and 1460 ng/mL; the MRT inf was 112 min and 98.4 min. For the same compound, in series [2] (rat, 2.0 mg/kg), the MRT last is 92.4 min and 101 min; the Vd was 1.13 L/kg and 1.29 L/kg; the clearance is 11.5 mL/min/kg and 11.6 mL/min/kg; the half-life is 78 min and 88.2 min. In series [5], this compound displayed a fraction unbound of 0.2 and a recovery of 98%. This compound gave a logD in series [3] of 2. This compound also gave a microsomal CLint in [6] of 10 µL/min/mg. In [7], this compound yielded a half-life of 69 min. In series [8], this compound registered an AUC(0-inf) of 14300 ng·h/mL, an AUC(0-t) of 14300 ng·h/mL, a CL/F of 11.9 mL/min/kg and an MRT inf of 205 min. Moreover, in series [8], the MRT last was found to be 205 min, the Tmax is 60 min and the half-life came out at 115 min.

`O=C(Nc1cnccc1C1CC1)C1CCNc2cc(Cl)c(Cl)cc21` (stereo not given): the CC50 (a549) was more than 9990 nM. For the same compound, the CC50 (mda-md-435) was more than 9990 nM. In series [2] (rat, 0.5 mg/kg), the AUC(0-inf) is 144 ng·h/mL and 96.1 ng·h/mL; the AUC(0-t) was 142 ng·h/mL and 94.2 ng·h/mL; the C0 was 341 ng/mL and 180 ng/mL; the MRT inf is 46.2 min and 45.9 min. Besides, in series [2] (rat, 0.5 mg/kg), the MRT last is 40.6 min and 41 min; the Vd was 2.65 L/kg and 4.01 L/kg; the clearance was 57.7 mL/min/kg and 86.8 mL/min/kg; the half-life is 49.4 min and 48.2 min.

In turn, `O=C(Nc1cncc2cc(CO)ccc12)C1CCOc2ccc(Cl)cc21` (stereo not given) came in with an IC50 in series [1] of 1400 nM. Further, in series [2] (rat, 0.5 mg/kg), the AUC(0-inf) was 187 ng·h/mL and 325 ng·h/mL; the AUC(0-t) was 182 ng·h/mL and 321 ng·h/mL; the C0 was 518 ng/mL and 742 ng/mL; the MRT inf is 36.2 min and 29.3 min. Moreover, in series [2] (rat, 0.5 mg/kg), the MRT last is 26 min and 34 min; the Vd was 1.31 L/kg and 0.947 L/kg; the clearance is 44.6 mL/min/kg and 26.8 mL/min/kg; the half-life was determined as 27.7 min. Also, the logD in series [3] amounted to 2.2.

For `COc1ccc2cncc(NC(=O)[C@]3(OC)CCOc4ccc(Cl)cc43)c2c1` (stereo in doubt), the IC50 in series [1] is 61.2 nM and 76.5 nM and 85.3 nM. The logD in [3] turned out to be 3.4.

As for `COc1cccc2[nH]c(=O)cc(C(=O)NCCOc3ccccc3OCC3CC3)c12`, where the note is “a549”, the CC50 is more than 10000 nM.

`C=CC(=O)N(C(=O)C1CCOc2ccc(Cl)cc21)c1cncc2ccccc12` (stereo not given) gave a CC50 (a549) of more than 10000 nM.

Consider `O=C(Nc1cncc2ccccc12)[C@@H]1CCNc2cc(Cl)c(Cl)cc21` (stereo in doubt), for which the half-inhibitory concentration (IC50) in [1] is < 50 nM and 47.4 nM. In [9], this compound came in with a fraction unbound of 0.584 and a recovery of 70.6%. In series [4], the fraction unbound is 0.049 (2×) and 0.023; the recovery is 105%. Also, in series [2] (rat, 0.5 mg/kg), the AUC(0-inf) was 198 ng·h/mL and 170 ng·h/mL; the C0 was 559 ng/mL and 452 ng/mL; the MRT inf was 33.1 min and 29.5 min; the MRT last was 26.2 min and 27.9 min. Also, in series [2] (rat, 0.5 mg/kg), the Vd was 1.46 L/kg and 1.94 L/kg; the clearance was 49.6 mL/min/kg and 60.7 mL/min/kg. In [2] (rat, 1.0 mg/kg), the AUC(0-inf) was 220 ng·h/mL and 249 ng·h/mL; the C0 is 324 ng/mL and 410 ng/mL; the MRT inf is 44.1 min and 46 min; the MRT last is 44.8 min and 42.7 min. For the same compound, in series [2] (rat, 1.0 mg/kg), the Vd is 3.49 L/kg and 2.99 L/kg; the clearance was 75.9 mL/min/kg and 68 mL/min/kg; the half-life was 38.2 min and 32.5 min. In series [10], the half-life was 9.3 min; the microsomal CLint is 290 µL/min/mg and 186 µL/min/mg. Besides, in [11], the logD was 3.4 and 3.54. Further, in [5], the fraction unbound is 0.033 (2×) and 0.029; the recovery was 98.4%. In series [12], this compound came in with a fraction unbound of 0.039 and a recovery of 98.1%. Besides, in series [3], the logD stood at 3.8. For the same compound, the half-life in series [13] was determined as 83 min. In [6], this compound displayed a microsomal CLint of 40 µL/min/mg. In series [7], this compound gave a half-life of 27.9 min and a microsomal CLint of 62.2 µL/min/mg. Moreover, in series [8], the AUC(0-inf) was 257 ng·h/mL, the AUC(0-t) was 247 ng·h/mL, the CL/F worked out at 653 mL/min/kg and the Cmax was 40.4 ng/mL. Besides, in series [8], the MRT last was 397 min; the Tmax stood at 120 min; the bioavailability was 10.2% (2×) and 11.9%; the half-life is 255 min.

With `Cc1nc2n(n1)CC(C(=O)NC(C)(C(=O)Nc1cncc3ccccc13)c1ccc(Cl)c(Cl)c1)CC2` (stereo not given), the CC50 (a549) is more than 9990 nM. Also, the IC50 in [1] was 3440 nM and 6760 nM.

`CN(C)C(=O)CNCC1(C(=O)Nc2cncc3ccccc23)CCOc2ccc(Cl)cc21` (stereo not given) yielded an IC50 in series [1] of 603 nM. This compound also had a logD in series [3] of 2.7.

For the compound `O=C(Cn1nc2n(c(=O)c1=O)CCC2)NC(C(=O)Nc1cncc2ccccc12)c1cccc(Cl)c1` (stereo not given), where the note is “vero”, the CC50 was more than 9990 nM.

Turning to `CC(C)(C)c1ccc(N(C(=O)c2cocn2)C(C(=O)NCC2CCCO2)c2cccnc2)cc1` (stereo not given), the CC50 (vero) is more than 10000 nM. In series [1], this compound came in with an IC50 of 5150 nM.

In the case of `COc1ccc(C[C@H](N)C(=O)N[C@H]2[C@@H](O)[C@H](n3cnc4c(N(C)C)ncnc43)O[C@@H]2CO)cc1` (stereo in doubt), the CC50 in series [14] was 325 nM and 831 nM and 504 nM.

In turn, `O=C(Cc1cccc(Cl)c1)Nc1cncc2cccc(F)c12` displayed an IC50 in series [1] of 1310 nM. This compound gave a logD in series [3] of 3.1.

In the case of `N#Cc1ccc2cncc(NC(=O)C3CCOc4ccc(Cl)cc43)c2c1` (stereo not given), the CC50 (a549) was more than 10000 nM.

`CS(=O)(=O)N1Cc2ccc(Cl)cc2[C@H](C(=O)Nc2cncc3ccccc23)C1` (stereo in doubt): the logD in [3] was 2.2.

`COc1ccc(Cl)cc1OCCNC(=O)c1cc(=O)[nH]c2cccc(OC)c12` gave a Papp in series [15] of 109 ×10⁻⁶ cm/s. The compound also came in with an IC50 in [1] of 874 nM.
